# According to ChEMBL document CHEMBL3886580, “B-RAF kinase inhibitors” (2016):
# pIC50: −log10 of the molar value.
# Target: Serine/threonine-protein kinase B-raf (Homo sapiens, UniProt P15056, V600E)
# Assay: B-RAF (V600E) Kinase Assay: In a dilution series 10 uL/well of test substance solution are placed in a multiwell plate. The dilution series is selected so that generally a range of concentrations of 2 uM to 0.119 nM or 0.017 nM is covered. If necessary the initial concentration of 2 uM is changed to 50 uM, 10 uM or 0.4 uM or 0.2857 uM and further dilution is carried out accordingly. The final concentration of DMSO is 5%. 10 uL/well of the B-Raf (V600E)-kinase solution are pipetted in (containing 0.5 ng B-Raf (V600E)-kinase (e.g. from Upstate) in 20 mM Tris-HCl pH 7.5, 0.1 mM EDTA, 0.1 mM EGTA, 0.286 mM sodium orthovanadate, 10% glycerol, 1 mg/mL bovine serum albumin, 1 mM dithiothreitol) and the mixture is incubated for 1 h at RT under with shaking. The kinase reaction is started by the addition of 20 uL/well ATP solution [final concentration: 250 uM ATP, 30 mM Tris-HCl pH 7.5, 0.02% Brij, 0.2 mM sodium orthovanadate, 10 mM magnesium acetate, 0.1 mM EGTA, phosphatase cocktail (Sigma, #P2850, dilution recommended by the manufacturer)] and 10 uL/well MEK1 solution [containing 50 ng biotinylated MEK1 (prepared from purified MEK1 according to standard procedure, e.g. with EZ-Link Sulpho-NHS-LC-Biotin reagent, Pierce, #21335)] and carried out for 60 min at RT with constant shaking. The reaction is stopped by the addition of 12 uL/well of a 100 mM EDTA solution and incubation is continued for a further 5 min. 55 uL/well of the reaction solution are transferred into a streptavidin-coated plate (e.g. Streptawell HighBond, Roche, #11989685001) and shaken gently for 1 h at RT, in order to bind biotinylated MEK1 to the plate. After elimination of the liquid the plate is washed five times with 200 uL/well of 1ÿPBS and 100 uL/well solution of primary antibody plus europium-labelled secondary antibody [Anti Phospho-MEK (Ser217/221), Cell Signaling, #9121 and Eu-N1 labelled goat-anti-rabbit antibody, Perkin Elmer, #AD0105] is added, the primary antibody is diluted 1:2000 and the secondary antibody is diluted to 0.4-0.5 ug/mL in Delfia Assay Buffer (Perkin Elmer, #1244-111). After 1 h shaking at RT the solution is poured away and washed five times with 200 uL/well Delfia Wash Buffer (Perkin Elmer, #4010-0010/#1244-114). After the addition of 200 uL/well Enhancement Solution (Perkin Elmer, #4001-0010/#1244-105) the mixture is shaken for 10 min at RT and then measured in a Wallac Victor using the program "Delfia Time Resolved Fluorescence (Europium)". IC50 values are obtained from these dosage-activity curves using a software program (GraphPadPrizm).
# Sequence of Serine/threonine-protein kinase B-raf (P15056 2-766 V600E limits assumed): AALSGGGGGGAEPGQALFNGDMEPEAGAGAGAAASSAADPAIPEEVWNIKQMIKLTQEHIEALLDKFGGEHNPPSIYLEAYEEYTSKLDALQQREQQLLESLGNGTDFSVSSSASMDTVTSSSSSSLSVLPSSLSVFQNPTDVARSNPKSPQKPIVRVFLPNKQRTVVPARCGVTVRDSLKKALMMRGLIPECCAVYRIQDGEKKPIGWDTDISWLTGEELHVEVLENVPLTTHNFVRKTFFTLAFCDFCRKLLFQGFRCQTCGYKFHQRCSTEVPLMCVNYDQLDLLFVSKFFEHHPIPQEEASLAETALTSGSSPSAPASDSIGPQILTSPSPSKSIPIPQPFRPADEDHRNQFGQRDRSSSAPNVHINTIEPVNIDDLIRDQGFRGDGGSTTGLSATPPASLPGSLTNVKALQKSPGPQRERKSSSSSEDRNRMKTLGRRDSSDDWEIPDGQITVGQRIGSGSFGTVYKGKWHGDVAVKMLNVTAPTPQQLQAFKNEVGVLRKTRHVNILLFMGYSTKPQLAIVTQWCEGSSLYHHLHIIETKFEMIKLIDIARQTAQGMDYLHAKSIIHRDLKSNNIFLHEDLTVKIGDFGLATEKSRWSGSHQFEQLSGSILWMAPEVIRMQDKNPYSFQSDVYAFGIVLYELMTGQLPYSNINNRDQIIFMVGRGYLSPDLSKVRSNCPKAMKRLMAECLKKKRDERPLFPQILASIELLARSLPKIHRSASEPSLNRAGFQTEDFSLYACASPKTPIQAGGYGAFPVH
row,Compound,pIC50
1,CCN1CCN(c2cncc(-c3cn(-c4cc(C(=O)Nc5cc(C(C)(C)C)on5)ccc4C)nn3)c2)CC1C (stereo not given),7.96
2,C=CCN1CCN(c2cncc(-c3cn(-c4cc(NC(=O)c5ccc(C(C)(C)C)s5)ccc4C)nn3)c2)CC1,7.89
3,Cc1ccc(NC(=O)c2ccc(C(C)(C)C)s2)cc1-n1cc(-c2cncc(N3CCNCC3)c2)nn1,8.40
4,Cc1ccc(NC(=O)c2ccc(C(C)(C)C)s2)cc1-n1cc(-c2cncc(N3CCN(C)CC3)c2)nn1,8.22
5,Cc1ccc(NC(=O)c2ccc(C(C)(C)C)s2)cc1-n1cc(-c2cncc(N3CCN(CC(C)C)CC3)c2)nn1,7.74
